# According to patent US20260027068A1, “METHODS OF ADM[…]-KETAMINE” (Perception Neuroscience, Inc., priority 2022, published 2026):
# Key:
# [1] = Phase 1 single ascending dose plasma pharmacokinetics of 40-minute IV infusion of R(−)-ketamine and its metabolites; settings: for Tmax: all dose levels 5 mg to 150 mg; for AUC(0-inf) / Cmax / AUC(0-t): iv
# Experimental: This was a Phase 1 randomized, placebo-controlled, double-blind, single dose study conducted at one center. […] The pharmacokinetic (PK) population was 36 subjects, with 12 additional subjects receiving placebo. […] Subjects were male or female healthy subjects, 18 to 65 years of age. […] Cohort 1 was dosed at 5 mg, followed by Cohort 2 at 15 mg, Cohort 3 at 30 mg, Cohort 4 at 60 mg, Cohort 5 at 100 mg, and Cohort 6 at 150 mg R(−)-ketamine. […] In addition to the safety and tolerability data, the study also evaluated the dose-related PK of each 40-minute IV infusion of R(−)-ketamine.
# To evaluate the pharmacokinetics of R(−)-ketamine, blood was drawn from subjects for PK analysis at the following sampling times: pre-dose (−30 minutes); and from the start of infusion (5, 10, and 15 minutes [±1 minute], 30 minutes [±5 minutes], 40 minutes [immediately prior to infusion completion], 1, 1.5, 2, and 3 hours [±5 minutes], 4 and 8 hours [±10 minutes], 12 and 24 hours [±15 minutes]).
# Plasma PK parameters of R(−)-ketamine and its metabolites (norketamine, 6-hydroxynorketamine, and dehydronorketamine) evaluated on include the following: • Maximum plasma concentration (Cmax), • Time to Cmax (Tmax), • Area under the plasma concentration curve (AUC0-t, AUC0-∞) • Elimination rate constant (λz), • Half-live (t½) • Clearance (CL, P R(−)-ketamine only), • Volume of distribution (Vz, R(−)-ketamine only), and • Metabolite to parent ratios (area under curve [AUC] and Cmax).
# The dose proportionality was assessed both visually and statistically using calculated Cmax and AUC values. […] Continuous variables: Descriptive statistics included the number of non-missing values (n), arithmetic mean, standard deviation (SD), median, minimum, and maximum values. […] For PK concentration data, the number of non-missing values, number of below limit of quantification (BLQ) values, arithmetic mean, SD, median, minimum, maximum, coefficient of variation (CV %), geometric mean, and geometric CV (geo CV %) values are presented. For PK parameter data, the number of non-missing values, arithmetic mean, SD, median, minimum, maximum, CV %, geometric mean, and geometric CV (geo CV %) values are presented.
# Intravenous administration of allocated blinded study drug (Morning, Day 1) was infused over 40 minutes. Blood collection for plasma PK analysis occurred at infusion 5, 10, 15, 30, 40, 60, and 90 minutes, and 2, 3, 4, 8, and 12 hours after the start of infusion.
# Plasma concentrations of R(−)-ketamine and its metabolites norketamine, 6-hydroxynorketamine, and dehydronorketamine were determined using a suitable validated analytical method with a lower limit of quantitation (LOQ) of 1 ng/mL.
# The linearity of the increase in exposure with respect to the increasing dose administered was evaluated for Cmax and AUC for R(−)-ketamine and its metabolites (norketamine, 6-hydroxynorketamine and dehydronorketamine). […] The power model was used to estimate the slope parameter and the 90% confidence intervals for the slope.
# [2] = system: rats; experiment: Anhedonic or negative affective side effects
# [3] = in vivo; cited from earlier work
# [4] = system: TRD patients; settings: 15 mg; cited from earlier work
# [5] = system: phencyclidine site of the N-methyl-D-aspartate (NMDA) receptor; settings: phencyclidine site; cited from earlier work
# [6] = 5 mg R(−)-ketamine IV over 40 minutes, plasma
# [7] = 150 mg R(−)-ketamine IV over 40 minutes, plasma
structure (smiles),measurement,setting,value
NC1(c2ccccc2Cl)CCC=CC1=O (stereo not shown) [dehydronorketamine],Arithmetic mean AUC0-24h,[1]; 5 mg R(−)-ketamine IV,2.5 ng·h/mL
same,Arithmetic mean AUC0-t,[1]; 5 mg R(−)-ketamine IV,1.37 ng·h/mL
same,Arithmetic mean Cmax,[1]; [6],0.198 ng/mL
same,Arithmetic mean AUC0-inf,[1]; 15 mg R(−)-ketamine IV,16.3 ng·h/mL
same,Fold increase in AUC0-inf,[1]; 15 mg to 150 mg (10-fold increase in dose),35.3 fold
same,Arithmetic mean AUC0-24h,[1]; 150 mg R(−)-ketamine IV,424 ng·h/mL
same,Arithmetic mean AUC0-inf,[1]; 150 mg R(−)-ketamine IV,576 ng·h/mL
same,Arithmetic mean AUC0-t,[1]; 150 mg R(−)-ketamine IV,424 ng·h/mL
same,Arithmetic mean Cmax,[1]; [7],35.6 ng/mL
same,Stability in the samples,[1]; PK samples,not stable in the samples
N[C@@]1(c2ccccc2Cl)CCC[C@@H](O)C1=O [R-hydroxynorketamine],Anhedonic or negative affective side effects,[2],no anhedonic or negative affective side effects
"CN[C@]1(c2ccccc2Cl)CCCCC1=O [S(+)-ketamine, reference compound]","Side effects (hyperlocomotion, prepulse inhibition deficit, drug dependence)",[3],"induced side effects such as a hyperlocomotion, prepulse inhibition deficit, and drug dependence"
same,Antidepressant effect,[4],robust antidepressant effect
same,Binding affinity relative to R(−)-ketamine,[5],approximately 4 times
NC1(c2ccccc2Cl)CCCCC1=O (stereo not shown) [norketamine],"Metabolite/R(−)-ketamine ratio based on Cmax, arithmetic mean",[1]; across 5 mg to 150 mg cohorts,0.448
same,half-life,"[1]; both, human, plasma, intravenous",6.7 to 8.05 h
same,Tmax,"[1]; both, human, plasma, intravenous, Approximate median plasma Tmax",~1 h
same,Tmax,"[1]; both, human, plasma, intravenous, Plasma Tmax range (mixed units as printed)",0.667 to 2 h
same,AUC(0-inf),"[1]; both, human, plasma, 5 mg",79.1 ng·h/mL
same,Cmax,"[1]; both, human, plasma, 5 mg",11.4 ng/mL
same,AUC(0-t),"[1]; both, human, plasma, 5 mg, Arithmetic mean AUC0-24h, 5 mg R(−)-ketamine IV",79.6 ng·h/mL
same,AUC(0-t),"[1]; both, human, plasma, 5 mg, Arithmetic mean AUC0-t, 5 mg R(−)-ketamine IV",78 ng·h/mL
same,AUC(0-inf),"[1]; both, human, plasma, 150 mg",3530 ng·h/mL
same,Cmax,"[1]; both, human, plasma, 150 mg",360 ng/mL
same,AUC(0-t),"[1]; both, human, plasma, 150 mg, Arithmetic mean AUC0-24h, 150 mg R(−)-ketamine IV",3140 ng·h/mL
same,AUC(0-t),"[1]; both, human, plasma, 150 mg, Arithmetic mean AUC0-t, 150 mg R(−)-ketamine IV",3140 ng·h/mL
NC1(c2ccccc2Cl)CCCC(O)C1=O (stereo not shown) [6-hydroxynorketamine],Arithmetic mean AUC0-24h,[1]; 5 mg R(−)-ketamine IV,110 ng·h/mL
same,Arithmetic mean AUC0-t,[1]; 5 mg R(−)-ketamine IV,110 ng·h/mL
same,Arithmetic mean Cmax,[1]; [6],5.98 ng/mL
same,Arithmetic mean AUC0-24h,[1]; 150 mg R(−)-ketamine IV,3000 ng·h/mL
same,Arithmetic mean AUC0-t,[1]; 150 mg R(−)-ketamine IV,3000 ng·h/mL
same,Arithmetic mean Cmax,[1]; [7],165 ng/mL
same,"Metabolite/R(−)-ketamine ratio based on AUC0-24h, arithmetic mean",[1]; across 5 mg to 150 mg cohorts,2.22
same,"Metabolite/R(−)-ketamine ratio based on AUC0-t, arithmetic mean",[1]; across 5 mg to 150 mg cohorts,2.22
